According to the supplement of paper PMC10733146:

Experiments:
Experiment in all cases: viability relative to DMSO control (fraction); higher = less drug effect (more viable cells)
Details in all cases: 48 h
[1] = system: primary AML patient cells (S085)
In short: (§1)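 The cells were primary mononuclear tumour cells, either fresh or cryopreserved, isolated by Ficoll from blood or bone marrow or derived from processed lymph node. Each well of a 384-well plate received 4 × 10^4 cells onto compounds pre-plated at five concentrations, with one well per concentration. The medium was RPMI-1640 with penicillin/streptomycin, L-glutamine and human serum, and plates stood at 37 °C and 5% CO2 for 48 h. Viability is reported as CellTiter-Glo luminescence relative to the median of 16 inner DMSO wells.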

[2] = system: primary AML patient cells (S025)
In short: as §1

[3] = system: primary AML patient cells (S011)
In short: as §1

[4] = system: primary AML patient cells (S002)
In short: as §1

[5] = system: primary CLL patient cells (S043)
In short: as §1

[6] = system: primary AML patient cells (S060)
In short: as §1

[7] = system: primary BL patient cells (S005)
In short: as §1

[8] = system: primary ALL patient cells (S088)
In short: as §1

[9] = system: primary B-PLL patient cells (S016)
In short: as §1

[10] = system: primary AML patient cells (S071)
In short: as §1

[11] = system: primary AML patient cells (S081)
In short: as §1

[12] = system: primary AML patient cells (S019)
In short: as §1

[13] = system: primary AML patient cells (S021)
In short: as §1

[14] = system: primary AML patient cells (S017)
In short: as §1

N#Cc1ccnc(N2C(=O)CC[C@H]2C(=O)N(c2cncc(F)c2)[C@H](C(=O)NC2CC(F)(F)C2)c2ccccc2Cl)c1 [AG-120]
viability ([1]; 0.024 µM): 1.07 | viability ([1]; 0.12 µM): 1 | viability ([1]; 0.6 µM): 0.959 | viability ([1]; 3 µM): 1.03 | viability ([1]; 15 µM): 0.886 | viability ([2]; 0.024 µM): 1.04 | viability ([2]; 0.12 µM): 1.06 | viability ([2]; 0.6 µM): 0.85 | viability ([2]; 3 µM): 0.934 | viability ([2]; 15 µM): 0.826 | viability ([3]; 0.024 µM): 1.76 | viability ([3]; 0.12 µM): 0.843 | viability ([3]; 0.6 µM): 0.852 | viability ([3]; 3 µM): 0.785 | viability ([3]; 15 µM): 0.657 | viability ([4]; 0.024 µM): 0.901 | viability ([4]; 0.12 µM): 0.897 | viability ([4]; 0.6 µM): 0.849 | viability ([4]; 3 µM): 0.951 | viability ([4]; 15 µM): 0.766 | viability ([5]; 0.024 µM): 0.819 | viability ([5]; 0.12 µM): 0.925 | viability ([5]; 0.6 µM): 0.925 | viability ([5]; 3 µM): 0.91 | viability ([5]; 15 µM): 0.837 | viability ([6]; 0.024 µM): 1.05 | viability ([6]; 0.12 µM): 1.1 | viability ([6]; 0.6 µM): 0.937 | viability ([6]; 3 µM): 1.16 | viability ([6]; 15 µM): 0.938 | viability ([7]; 0.024 µM): 0.99 | viability ([7]; 0.12 µM): 1.02 | viability ([7]; 0.6 µM): 1.43 | viability ([7]; 3 µM): 1.01 | viability ([7]; 15 µM): 1.31 | viability ([8]; 0.024 µM): 0.727 | viability ([8]; 0.12 µM): 0.745 | viability ([8]; 0.6 µM): 0.533 | viability ([8]; 3 µM): 0.7 | viability ([8]; 15 µM): 0.499 | viability ([9]; 0.024 µM): 1.16 | viability ([9]; 0.12 µM): 1.18 | viability ([9]; 0.6 µM): 1 | viability ([9]; 3 µM): 1.12 | viability ([9]; 15 µM): 0.86 | viability ([10]; 0.024 µM): 1.03 | viability ([10]; 0.12 µM): 1.05 | viability ([10]; 0.6 µM): 0.922 | viability ([10]; 3 µM): 0.919 | viability ([10]; 15 µM): 0.751 | viability ([11]; 0.024 µM): 0.994 | viability ([11]; 0.12 µM): 1.01 | viability ([11]; 0.6 µM): 0.925 | viability ([11]; 3 µM): 1.11 | viability ([11]; 15 µM): 0.968 | viability ([12]; 0.024 µM): 1.43 | viability ([12]; 0.12 µM): 1.43 | viability ([12]; 0.6 µM): 0.934 | viability ([12]; 3 µM): 1.34 | viability ([12]; 15 µM): 0.833 | viability ([13]; 0.024 µM): 0.985 | viability ([13]; 0.12 µM): 0.875 | viability ([13]; 0.6 µM): 0.743 | viability ([13]; 3 µM): 0.761 | viability ([13]; 15 µM): 0.692 | viability ([14]; 0.024 µM): 1.04 | viability ([14]; 0.12 µM): 0.988 | viability ([14]; 0.6 µM): 1.16 | viability ([14]; 3 µM): 1.02 | viability ([14]; 15 µM): 0.908
